Assays:
[1] = target: T1, recombinant METTL3/METTL14 complex (Homo sapiens, UniProt Q86U44); assay: METTL3/14 Scintillation Proximity Assay (SPA), RNA methyltransferase activity; assay type: biochemical; settings: 5.31 nM METTL3/14 complex, 250 nM RNA substrate, 1 μM 3H-SAM, 90 min; for compounds marked * best of the two separated forms
T1 construct: purchased Active Motif 311970; host or cells: Sf9 cells

[2] = tested on: Caov-3 cells; assay: Caov-3 cellular viability assay (ATP-Lite, 72 h); assay type: cell-based; settings: Homo sapiens, ATP-Lite luminescence, % viability relative to DMSO
Description: Caov-3 cell line was purchased from ATCC (ATCC® HTB-75™). Cells were isolated from the ovary of a ovarian cancer patient.
Caov-3 cells are cultured in DMEM (ATCC 30-2002) containing 10% heat-inactivated and 0.22 μm filtered FBS (Gibco 10270-106). The cells are seeded at 2.5E+4cell/cm^2 within the recommended subcultivation ratio of 1:3 to 1:6, as stated on the certificate of analysis issues by the provider of the cells.
(§1) Cellular viability assay: Caov-3 cells were plated (50 μL) in 96-well cell culture microplates (PS, F-Bottom black, Cellstar, Greiner 655086) at final concentration of 10000 cells/well. The compounds of the invention were dissolved in DMSO, and a titration curve was generated at 1000× final concentration. Compounds were then diluted 500× in tissue culture medium (RPMI-1640, 10% FBS). Then 50 μl of test compound were added to Caov-3 cells in a final DMSO concentration of 0.1%, final volume 100 μl. A gas permeable sealing membrane was applied to the plate to prevent evaporation (Breathe-Easy sealing membrane, Sigma Z380059-1PK) and cells were incubated for 72 h at 37° C., 5% CO2, 80% RH. After 72 h of treatment, the plates were taken out of the incubator and left for a few minutes at room temperature. 100 μl of the reconstituted reagent ATP-Lite One Step (Perkin Elmer, 6016739) were added to each well. The plates were shaken for 2 min at 700 rpm and placed in the dark for 10 minutes at room temperature before measurement of luminescence intensity with Envision instrument. The raw data were expressed in RLU. Results were expressed in % of viability relative to DMSO control and an IC50 was calculated based on the concentration-response profile of individual compounds.

[3] = tested on: Kasumi-1 cells; assay: Kasumi-1 cellular viability assay (ATP-Lite, 72 h); assay type: cell-based; settings: Homo sapiens, ATP-Lite luminescence, % viability relative to DMSO
Description: Kasumi-1 cell line was purchased from ATCC (ATCC® CRL2724™). Cells were isolated from the peripheral blood of a child with acute myeloid leukemia (AML FAB M2) (in 2nd relapse after bone marrow transplantation) in 1989. Most cells are round. Kasumi-1 cells are observed to grow individually or in small clumps in suspension.
Kasumi-1 cells are cultured in RPMI-1640 (Gibco A10491-01) containing 10% heat-inactivated and 0.22 μm filtered FBS (Gibco 10270-106) at a density of 3E+5 and 3E+6 viable cell/mL following the certificate of analysis.
as §1, with “assay: Kasumi-1” for “assay: Caov-3”, “of 15000” for “of 10000”, “to Kasumi-1” for “to Caov-3”, “After 72h” for “After 72 h”, “6016739) was” for “6016739) were”

T1 sequence (Q86U44 whole entry): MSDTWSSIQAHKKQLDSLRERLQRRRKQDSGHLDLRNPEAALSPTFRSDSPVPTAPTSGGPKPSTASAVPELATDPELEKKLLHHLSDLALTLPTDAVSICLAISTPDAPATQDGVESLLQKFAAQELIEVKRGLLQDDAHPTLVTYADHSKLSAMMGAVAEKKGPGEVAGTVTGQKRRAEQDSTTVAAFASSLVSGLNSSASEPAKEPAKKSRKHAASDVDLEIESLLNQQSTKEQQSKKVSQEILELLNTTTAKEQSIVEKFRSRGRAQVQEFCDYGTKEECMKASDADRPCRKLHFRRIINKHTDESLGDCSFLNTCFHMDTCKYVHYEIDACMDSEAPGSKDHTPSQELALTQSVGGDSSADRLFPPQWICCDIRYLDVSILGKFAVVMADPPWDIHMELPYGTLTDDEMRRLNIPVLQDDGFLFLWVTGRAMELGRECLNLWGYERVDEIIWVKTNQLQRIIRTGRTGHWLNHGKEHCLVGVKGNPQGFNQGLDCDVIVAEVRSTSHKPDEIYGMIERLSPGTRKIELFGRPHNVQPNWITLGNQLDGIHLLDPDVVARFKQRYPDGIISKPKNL
T1 sequence (Q9HCE5 whole entry partner): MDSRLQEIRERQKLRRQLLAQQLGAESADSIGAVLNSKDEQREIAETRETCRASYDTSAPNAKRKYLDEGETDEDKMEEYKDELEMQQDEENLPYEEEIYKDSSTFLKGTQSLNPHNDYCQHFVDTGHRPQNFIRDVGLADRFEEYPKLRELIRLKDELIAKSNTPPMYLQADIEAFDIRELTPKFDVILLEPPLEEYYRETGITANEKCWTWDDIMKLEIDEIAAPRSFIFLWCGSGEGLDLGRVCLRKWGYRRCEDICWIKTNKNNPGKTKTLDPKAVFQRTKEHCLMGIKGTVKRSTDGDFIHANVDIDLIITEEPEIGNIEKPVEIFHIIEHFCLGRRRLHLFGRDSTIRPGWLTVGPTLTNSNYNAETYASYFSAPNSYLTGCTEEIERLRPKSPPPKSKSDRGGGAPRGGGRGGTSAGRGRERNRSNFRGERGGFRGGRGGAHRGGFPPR

SMILES	IC50 [1] [nM]	IC50 [2] [nM]	IC50 [3] [nM]
COc1cc(-c2cn(C(C)n3ccc(N4CCC[C@@H](NCC5CCC5)C4)cc3=O)nn2)c2cn[nH]c2c1 (mixture of isomers) [Compound 050, 4-((R)-3-((cyclobutylmethyl)amino)piperidin-1-yl)-1-(1-(4-(6-methoxy-1H-indazol-4-yl)-1H-1,2,3-triazol-1-yl)ethyl)pyridin-2(1H)-one]	≤ 50	≤ 500	≤ 500
COc1cncc(-c2cn(C(C)c3ccc(N4CCC[C@@H](NCC5CCC5)C4)cc3)nn2)c1 (mixture of isomers) [Compound 076, (3R)-N-(cyclobutylmethyl)-1-(4-(1-(4-(5-methoxypyridin-3-yl)-1H-1,2,3-triazol-1-yl)ethyl)phenyl)piperidin-3-amine]	≤ 50	500 to 5000	500 to 5000
COc1cc(-c2cn(Cc3ccc(N4CCC[C@@H](N(C)CC5CCC5)C4)nn3)nn2)c2cn[nH]c2c1 [Compound 022, (R)-N-(cyclobutylmethyl)-1-(6-((4-(6-methoxy-1H-indazol-4-yl)-1H-1,2,3-triazol-1-yl)methyl)pyridazin-3-yl)-N-methylpiperidin-3-amine]	–	> 5000	500 to 5000
COc1cc(-c2cn(Cc3ccc(N4CCC[C@@H](NC5CCCC5)C4)nn3)nn2)c2cn[nH]c2c1 [Compound 023, (R)-N-cyclopentyl-1-(6-((4-(6-methoxy-1H-indazol-4-yl)-1H-1,2,3-triazol-1-yl)methyl)pyridazin-3-yl)piperidin-3-amine]	–	500 to 5000	500 to 5000
COc1cc(-c2cn(Cn3cnc(N4CCC[C@@H](NCC5CCC5)C4)cc3=O)nn2)c2cn[nH]c2c1 [Compound 041, (R)-6-(3-((cyclobutylmethyl)amino)piperidin-1-yl)-3-((4-(6-methoxy-1H-indazol-4-yl)-1H-1,2,3-triazol-1-yl)methyl)pyrimidin-4(3H)-one]	50 to 500	–	> 5000
COc1cc(-c2cn(Cc3ncc(N4CCCC(NCC5CCC5)C4)cn3)nn2)c2cn[nH]c2c1 (stereo not shown) [Compound 043, N-(cyclobutylmethyl)-1-(2-((4-(6-methoxy-1H-indazol-4-yl)-1H-1,2,3-triazol-1-yl)methyl)pyrimidin-5-yl)piperidin-3-amine]	≤ 50	–	> 5000
COc1cc(-c2cn(Cc3cnc(N4CCCC(NCC5CCC5)C4)nc3)nn2)c2cn[nH]c2c1 (stereo not shown) [Compound 046, N-(cyclobutylmethyl)-1-(5-((4-(6-methoxy-1H-indazol-4-yl)-1H-1,2,3-triazol-1-yl)methyl)pyrimidin-2-yl)piperidin-3-amine]	50 to 500	–	> 5000
COc1cc(-c2cn(Cc3ccc(N4CCCC(NCC5CCC5)C4)c(=O)[nH]3)nn2)c2cn[nH]c2c1 (stereo not shown) [Compound 052, 3-(3-((cyclobutylmethyl)amino)piperidin-1-yl)-6-((4-(6-methoxy-1H-indazol-4-yl)-1H-1,2,3-triazol-1-yl)methyl)pyridin-2(1H)-one]	50 to 500	–	> 5000

Now from value to compound, other results behind:

IC50 [1] [nM]	SMILES	IC50 [2] [nM]	IC50 [3] [nM]
≤ 50	COc1cnnc(-c2cn(C(C)n3ccc(N4CCC[C@@H](NCC5CCC5)C4)cc3=O)nn2)c1 (mixture of isomers) [Compound 093, 4-((R)-3-((cyclobutylmethyl)amino)piperidin-1-yl)-1-(1-(4-(5-methoxypyridazin-3-yl)-1H-1,2,3-triazol-1-yl)ethyl)pyridin-2(1H)-one]	500 to 5000	500 to 5000
50 to 500	c1ncc(C2CC2)cc1-c1cn(C2(c3ccc(N4CCC[C@H](NCC5CC5)C4)cn3)COC2)nn1 [Compound 351, (S)—N-(cyclopropylmethyl)-1-(6-(3-(4-(5-cyclopropylpyridin-3-yl)-1H-1,2,3-triazol-1-yl)oxetan-3-yl)pyridin-3-yl)piperidin-3-amine]	–	500 to 5000
≤ 50	CC(c1ccc(N2CCC[C@@H](NCC3CC3)C2)nn1)c1nnc(-c2cncc(N3CCCC3)n2)s1 (stereo partly drawn) [Compound 353, (3R)—N-(cyclopropylmethyl)-1-(6-(1-(5-(6-(pyrrolidin-1-yl)pyrazin-2-yl)-1,3,4-thiadiazol-2-yl)ethyl)pyridazin-3-yl)piperidin-3-amine]	≤ 500	–

From patent US20250002475A1 (EPICS THERAPEUTICS, priority 2023, published 2025)
